In test [1] the test system is calcium dependent smooth muscle contraction (trachea). The test can be described thus: Inhibition of Calcium Dependent Smooth Muscle Contraction (ICDSMC). Details: species or system dogs. The note with it: Canis lupus familiaris, 50 mM KCl. As to the method:
Tracheal rings, one cartilage segment wide (5-10 mm), are cut starting from the bronchial end. After cutting the cartilage, the trachealis muscle tissue is suspended in oxygenated Krebs-Henseleit buffer at 37° C. in a 25 mL tissue bath. After a 60 min equilibration period, the tissues are challenged with 10 μM carbachol. After 5 min the tissues are rinsed and allowed to rest 50 min. The tissues are then challenged with 50 mM KCl and after 30 min, the contractions are quantitated. The tissues are then rinsed and reequilibrated for 50 min. Test compounds are then added for 10 min, and the tissue is rechallenged with 50 mM KCl.
The percent inhibition of smooth muscle contraction is calculated from response data before and after drug treatment according to the following equation. [formula]

The target in test [2] is T1, calcium channel (specifically bound 3H-nitrendipine, heart membranes) (Oryctolagus cuniculus, UniProt P15381).
T1 construct: The heart is immediately removed, cleaned and chopped into small pieces; from tissue; host or cells: heart membranes of female New Zealand white rabbits (42,000×g pellet)
T1 sequence (P15381 whole entry, other chains not shown): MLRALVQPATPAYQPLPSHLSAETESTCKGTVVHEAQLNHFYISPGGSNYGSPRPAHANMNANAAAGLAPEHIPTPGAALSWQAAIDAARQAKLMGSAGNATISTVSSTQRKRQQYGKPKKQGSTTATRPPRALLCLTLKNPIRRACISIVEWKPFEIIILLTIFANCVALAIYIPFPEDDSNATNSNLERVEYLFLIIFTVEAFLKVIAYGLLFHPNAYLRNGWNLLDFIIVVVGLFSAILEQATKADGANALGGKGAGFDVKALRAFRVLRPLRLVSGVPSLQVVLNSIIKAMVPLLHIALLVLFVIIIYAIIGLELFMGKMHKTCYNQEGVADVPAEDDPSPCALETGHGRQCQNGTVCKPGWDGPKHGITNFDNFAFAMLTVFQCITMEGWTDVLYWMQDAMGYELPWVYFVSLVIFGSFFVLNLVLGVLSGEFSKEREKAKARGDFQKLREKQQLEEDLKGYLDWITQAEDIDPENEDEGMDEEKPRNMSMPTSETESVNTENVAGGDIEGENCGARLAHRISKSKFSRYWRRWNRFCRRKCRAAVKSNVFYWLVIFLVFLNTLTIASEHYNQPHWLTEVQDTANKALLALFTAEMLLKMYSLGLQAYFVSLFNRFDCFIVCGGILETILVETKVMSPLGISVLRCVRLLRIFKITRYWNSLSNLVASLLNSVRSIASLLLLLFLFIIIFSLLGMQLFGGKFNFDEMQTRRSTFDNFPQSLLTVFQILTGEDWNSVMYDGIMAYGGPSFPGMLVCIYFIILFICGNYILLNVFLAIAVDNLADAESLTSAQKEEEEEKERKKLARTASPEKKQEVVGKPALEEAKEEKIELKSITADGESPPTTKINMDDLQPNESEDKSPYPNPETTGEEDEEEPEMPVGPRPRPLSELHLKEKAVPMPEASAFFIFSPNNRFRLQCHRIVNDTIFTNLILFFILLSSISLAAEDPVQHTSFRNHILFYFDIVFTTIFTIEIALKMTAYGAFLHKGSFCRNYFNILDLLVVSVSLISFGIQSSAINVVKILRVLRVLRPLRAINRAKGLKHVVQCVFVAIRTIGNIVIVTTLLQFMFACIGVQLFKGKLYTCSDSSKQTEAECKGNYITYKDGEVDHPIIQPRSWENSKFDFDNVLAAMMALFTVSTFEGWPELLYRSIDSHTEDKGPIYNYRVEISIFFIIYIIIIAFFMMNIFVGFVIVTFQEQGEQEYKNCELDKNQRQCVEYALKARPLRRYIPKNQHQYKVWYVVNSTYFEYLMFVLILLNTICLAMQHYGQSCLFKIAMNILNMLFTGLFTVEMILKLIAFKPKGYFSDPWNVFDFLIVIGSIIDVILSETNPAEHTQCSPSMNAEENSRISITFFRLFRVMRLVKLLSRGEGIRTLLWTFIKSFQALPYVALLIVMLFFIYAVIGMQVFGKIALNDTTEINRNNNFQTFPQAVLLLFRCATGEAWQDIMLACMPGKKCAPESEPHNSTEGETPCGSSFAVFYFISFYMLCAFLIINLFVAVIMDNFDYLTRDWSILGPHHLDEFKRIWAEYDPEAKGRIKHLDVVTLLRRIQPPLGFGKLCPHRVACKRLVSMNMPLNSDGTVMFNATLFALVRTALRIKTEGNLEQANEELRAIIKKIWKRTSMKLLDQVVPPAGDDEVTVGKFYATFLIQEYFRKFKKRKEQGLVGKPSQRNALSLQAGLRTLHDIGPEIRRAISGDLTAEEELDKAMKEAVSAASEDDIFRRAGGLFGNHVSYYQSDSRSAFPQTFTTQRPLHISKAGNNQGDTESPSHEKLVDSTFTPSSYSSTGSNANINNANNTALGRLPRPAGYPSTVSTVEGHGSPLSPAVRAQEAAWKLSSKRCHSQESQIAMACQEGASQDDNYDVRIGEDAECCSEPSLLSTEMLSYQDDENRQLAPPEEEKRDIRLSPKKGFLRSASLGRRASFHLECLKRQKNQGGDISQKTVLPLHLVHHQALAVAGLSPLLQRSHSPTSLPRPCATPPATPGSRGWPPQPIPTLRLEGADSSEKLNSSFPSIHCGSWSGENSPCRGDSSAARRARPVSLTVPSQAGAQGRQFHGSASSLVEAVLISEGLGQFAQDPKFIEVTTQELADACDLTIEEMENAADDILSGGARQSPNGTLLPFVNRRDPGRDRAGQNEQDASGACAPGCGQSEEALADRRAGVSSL
T1 sequence (P13806 27-960 partner limits assumed, other chains not shown): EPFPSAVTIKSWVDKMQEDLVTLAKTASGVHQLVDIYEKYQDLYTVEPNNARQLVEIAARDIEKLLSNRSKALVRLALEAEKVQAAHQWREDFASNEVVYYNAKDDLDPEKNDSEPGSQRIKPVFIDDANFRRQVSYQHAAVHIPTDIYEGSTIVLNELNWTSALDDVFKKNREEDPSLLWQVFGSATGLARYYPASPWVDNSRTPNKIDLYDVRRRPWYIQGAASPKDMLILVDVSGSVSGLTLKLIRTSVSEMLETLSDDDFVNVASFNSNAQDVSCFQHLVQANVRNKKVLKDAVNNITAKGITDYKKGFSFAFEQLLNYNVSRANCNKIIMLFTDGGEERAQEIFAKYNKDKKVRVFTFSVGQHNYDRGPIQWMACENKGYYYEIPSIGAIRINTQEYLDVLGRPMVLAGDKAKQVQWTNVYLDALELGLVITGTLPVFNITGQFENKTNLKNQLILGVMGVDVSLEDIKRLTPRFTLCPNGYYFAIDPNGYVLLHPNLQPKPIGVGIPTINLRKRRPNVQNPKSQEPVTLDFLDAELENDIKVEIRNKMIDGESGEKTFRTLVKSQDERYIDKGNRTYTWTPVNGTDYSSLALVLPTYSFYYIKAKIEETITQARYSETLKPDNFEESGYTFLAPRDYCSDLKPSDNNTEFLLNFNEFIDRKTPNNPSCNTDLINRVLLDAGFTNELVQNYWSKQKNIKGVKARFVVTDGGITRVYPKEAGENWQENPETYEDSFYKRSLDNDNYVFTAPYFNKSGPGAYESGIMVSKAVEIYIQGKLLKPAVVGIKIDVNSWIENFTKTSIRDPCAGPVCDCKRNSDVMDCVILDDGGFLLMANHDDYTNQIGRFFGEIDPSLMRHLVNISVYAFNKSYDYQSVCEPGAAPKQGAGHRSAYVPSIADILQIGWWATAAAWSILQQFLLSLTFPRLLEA
T1 sequence (P13806 961-1106 partner limits assumed, other chains not shown): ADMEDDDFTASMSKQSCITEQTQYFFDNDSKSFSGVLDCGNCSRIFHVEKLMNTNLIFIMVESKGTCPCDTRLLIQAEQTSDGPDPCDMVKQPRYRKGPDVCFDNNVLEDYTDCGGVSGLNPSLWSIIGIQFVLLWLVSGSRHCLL
The test can be described thus: Nitrendipine Binding Assay (NBA). Details: species or system New Zealand white rabbits. The note with it: for IC50: 3H-nitrendipine 0.05-0.50 nM, 90 min at 4° C., pH 7.4. As to the method: The NBA is performed on female, New Zealand white rabbits (1-2 kg) which are sacrificed by cervical dislocation. The heart is immediately removed, cleaned and chopped into small pieces. The tissue is homogenized in 5X volume of 0.05M Hepes buffer, pH 7.4. The homogenate is centrifuged at 4000×g for 10 min; the supernatant is recentrifuged at 42,000×g for 90 min. The resulting membrane pellet is resuspended (0.7 ml/g weight in 0.05M Hepes, pH 7.4 and stored at -70° C. until used. Each tube of the binding assay contains ^3 H-nitrendipine (0.05-0.50nM), buffer, membranes (0.10mL), and test compound in a total volume of 1.0 mL. After 90 min at 4° C., the bound nitrendipine is separated from the unbound by filtration on Whatman GF/C fibers. After rinsing, the filters are dried and counted in a liquid scintillation counter.
Non-specific binding of ^3 H-nitrendipine (that amount bound in the presence of excess unlabelled nitrendipine) is subtracted from the total bound to obtain specifically bound radiolabeled nitrendipine. The amount of specifically bound nitrendipine in the presence of a test compound is compared to that amount bound in the absence of a compound. A percent displacement (or inhibition) can then be obtained.

Molecules are shown by their SMILES. Counter-ions that a name gives are not always drawn.

In the case of `CCCCN(CCCC)CCCOc1ccc(-c2cn3cccnc3n2)cc1` [Example 6, 2-(4-Dibutylaminopropoxyphenyl)imidazo[1,2-a]pyrimidine dihydrochloride], in test [1], the inhibition – broadly, the change of the read-out against control, counted positive when it falls – at 2 µM was determined as 26%; the inhibition at 10 µM was found to be 46%; the inhibition at 20 µM is 65%. For the same compound, the inhibition at 68 µM in test [2] (@ 68 μM, read-out: NBA percent displacement (or inhibition)) was determined as 43%.

For the compound `CCCCN(CCCC)CCCOc1ccc(-c2cn3ccc(C)nc3n2)cc1` [Example 7, 2-(4-Dibutylaminopropoxyphenyl)-7-methylimidazo-[1,2-a]pyrimidine trihydrochloride], in test [1], the inhibition at 2 µM is 25% and the inhibition at 10 µM worked out at 39%.

`CCCCN(CCCC)CCCOc1ccc(C(=O)c2cnc3nc(C)ccn23)cc1` [Example 9b, 3-(4-Dibutylaminopropoxybenzoyl)-7-methylimidazo[1,2-a]-pyrimidine hydrochloride]: the inhibition at 10 µM in test [1] was 19%.

Regarding `CCCCN(CCCC)CCCOc1ccc(-c2cn3nccnc3n2)cc1` [Example 5, 2-(4-Dibutylaminopropoxyphenyl)imidazo[1,2-b]-1,2,4-triazine hydrochloride], in test [1], the inhibition at 10 µM amounted to 45% and the inhibition at 20 µM turned out to be 85%. In addition, in test [2], the IC50 (commonly the midpoint of a concentration-inhibition curve) is 0.6 µM.

`CCCCN(CCCC)CCCOc1ccc(C(=O)c2cnc3ncccn23)cc1` [Example 8c, 3-(4-Dibutylaminopropoxybenzoyl)imidazo[1,2-a]pyrimidine dihydrochloride]: in test [1], the inhibition at 1 µM was 70%. For the same compound, in test [1] (@ .1 μM), the inhibition at 0.1 µM was 37%. Besides, the inhibition at 0.5 µM in test [1] (@ .5 μM) amounted to 60%. Further, the concentration for half-maximal inhibition (IC50) in test [2] came to 7 µM.

In the case of `CCCCN(CCCC)CCCOc1ccc(-c2cn3ccsc3n2)cc1` [Example 2, 6-(4-Dibutylaminopropoxyphenyl)imidazo[2,1-b]thiazole dihydrochloride], in test [1], the inhibition at 1 µM is 8%, the inhibition at 2 µM turned out to be 24%, the inhibition at 10 µM came out at 55% and the inhibition at 20 µM is 81%. Besides, the IC50 in test [2] was 1.5 µM.

For `CCCCN(CCCC)CCCOc1ccc(-c2cn3c(n2)sc2ccccc23)cc1` [Example 4, 6-(4-Dibutylaminopropoxyphenyl)imidazo[2,1-b]benzothiadihydrochloride], the inhibition at 20 µM in test [1] worked out at 38%. Besides, the IC50 in test [2] is 3.1 µM.

Regarding `CCCCN(CCCC)CCCOc1ccc(-c2nc3sccn3c2C)cc1` [Example 3, 6-(4-Dibutylaminopropoxyphenyl)-5-methylimidazo[2,1-b]thiazole hydrochloride], in test [1], the inhibition at 1 µM stood at 11% and the inhibition at 10 µM was 75%. In test [2], the IC50 is 1.3 µM.

As for `CCCCN(CCCC)CCCOc1ccc(-c2cn3nc(C)sc3n2)cc1` [Example 1d, 6-(4-Dibutylaminopropoxyphenyl)-2-methylimidazo[2,1-b]-1,3,4-thiadiazoledihydrochloride], in test [1], the inhibition at 1 µM worked out at 50% and the inhibition at 10 µM stood at 82%. Also, in test [1] (@ 5 μM), the inhibition at 5 µM was 27%. In addition, the IC50 in test [2] was 1.1 µM.

Values taken from patent publication US4880824A, “Phenyl and benzoyl substituted imidazo-fused heterocyclic calcium channel blockers” (Ortho Pharmaceutical Corporation, priority 1987, dated 1989).
